Experimental data as given in patent US20220054532A1, “VETERINARY COMPOSITIONS AND METHODS OF USE THEREFOR” (priority 2019, published 2022).

Legend:
Type in all cases: in vivo
[1] = tested on: dogs suffering from joint inflammation; experiment: Example 12: joint inflammation, thermal imaging (canine, CBD Complex); details: over the inflamed joint, 60 days BID
Text: (§1) This example examines the ability of embodiments of the invention versus Cosequin® to treat joint inflammation.
(§2) The first patient group is twenty dogs suffering from joint inflammation. The second patient group is twenty cats suffering from joint inflammation. The third patient group is twenty horses suffering from joint inflammation. Each patient group is broken into five groups of four animals. The first groups receive Cosequin® as the sole active agent; the second groups receive a composition comprising HMW HA as the sole active agent; the third groups receive a composition comprising CBD as the sole active agent; the fourth groups receive a composition comprising HMW HA and CBD Complex as the active agents; and the fifth groups receive a composition comprising HMW HA, CBD Complex, Boswellia, and superoxide dismutase (“SOD”) as the active agents.
(§3) Each composition is administered for a period of sixty (60) days, BID. Efficacy is determined by a decrease in body temperature over the inflamed joint, as measured by thermal imaging (e.g., via Digatherm device). Thermal imaging is performed on days 0 (“Initial Score”), 15, 30, 45, and 60 (“Final Score”) of treatment.
The following canine scores are observed and the results depicted in FIG. 12a: […]

[2] = tested on: cats suffering behavior aberrations and/or anxiety; experiment: Example 5: behavior aberrations and anxiety, Fe-BARQ (feline); details: Fe-BARQ day 0 vs 60, SID, 0 (no improvement) to 3 (marked improvement)
Text: This example examines the ability of embodiments of the invention versus Clomicalm® to reduce behavior aberrations and anxiety.
The first patient group is twenty dogs suffering behavior aberrations and/or anxiety, as determined by the canine behavioral assessment and research questionnaire (“C-BARQ”). See, e.g., P. Wiener et al., Use of questionnaire-based data to assess dog personality, 16 JOURNAL OF VETERINARY BEHAVIOR 81-85 (2016). The second patient group is twenty cats suffering behavior aberrations and/or anxiety, as determined by the feline behavioral assessment and research questionnaire (“Fe-BARQ”).
Each group is broken into five groups of four animals. The first group receives Clomicalm® as the sole active agent; the second group receives a composition comprising HMW HA as the sole active agent; the third group receives a composition comprising CBD as the sole active agent; the fourth group receives a composition comprising HMW HA and CBD as the active agents; and the fifth group receives a composition comprising HMW HA, CBD, valerian root, and scutillaria as the active agents.
Each composition is administered for a period of sixty (60) days, once a day (“SID”). Owners complete the species-appropriate C-BARQ or Fe-BARQ on days 0 and 60 of treatment. The results from the overall questionnaire are averaged and characterized as no improvement (score of 0), mild improvement (score of 1), moderate improvement (score of 2), or marked improvement (score of 3).
The following feline scores are observed and the results depicted in FIG. 5b: […]

[3] = tested on: cats suffering from GI-specific inflammation; experiment: Example 11: GI-specific inflammation, owner-rated symptom reduction; details: species not given, symptom reduction score 0 to 4; for Final Score: after 28 days BID
Text: This example examines the ability of embodiments of the invention versus Pepcid® to treat unwanted GI-specific inflammation characterized by gastritis, reflux, vomiting, diarrhea, and inappetence.
The first patient group is twenty dogs suffering from GI-specific inflammation. The second patient group is twenty cats suffering from GI-specific inflammation. Each patient group is broken into five groups of four animals. The first groups receive Pepcid® as the sole active agent; the second groups receive a composition comprising HMW HA as the sole active agent; the third groups receive a composition comprising CBD as the sole active agent; the fourth groups receive a composition comprising HMW HA and CBD Complex as the active agents; and the fifth groups receive a composition comprising HMW HA, CBD Complex, and glutathione as the active agents.
Each composition is administered for a period of twenty-eight (28) days, BID. The owner observes potential reduction of symptoms at the end of treatment and rates the reduction as no reduction (score of 0), mild reduction (score of 1), moderate reduction (score of 2), significant reduction (score of 3), or resolution of symptoms (score of 4).

[4] = tested on: cats suffering from joint inflammation; experiment: Example 12: joint inflammation, thermal imaging (feline, CBD Complex); details: over the inflamed joint, 60 days BID
Text: as §1, §2, §3
The following feline scores are observed and the results depicted in FIG. 12b: […]

[5] = tested on: dogs suffering from joint inflammation; experiment: Example 4: joint inflammation, thermal imaging (canine); details: over the inflamed joint, 60 days BID
Text: as §1
The first patient group is twenty dogs suffering from joint inflammation. The second patient group is twenty cats suffering from joint inflammation. The third patient group is twenty horses suffering from joint inflammation. Each patient group is broken into five groups of four animals. The first groups receive Cosequin® as the sole active agent; the second groups receive a composition comprising HMW HA as the sole active agent; the third groups receive a composition comprising CBD as the sole active agent; the fourth groups receive a composition comprising HMW HA and CBD as the active agents; and the fifth groups receive a composition comprising HMW HA, CBD, Boswellia, and superoxide dismutase (“SOD”) as the active agents.
as §3
The following canine scores are observed and the results depicted in FIG. 4a: […]

[6] = tested on: dogs suffering from osteoarthritis; experiment: Example 9: pain relief and side effects in canine osteoarthritis (CBD Complex); details: dogs with osteoarthritis, 4 weeks of administration, group average
Text: This example examines the ability of various compositions to minimize pain and examines the level of adverse side effects of each composition.
At the outset of the study, participants receive a full physical examination, including weight measurement, thigh circumference, and CBC/blood chemistries. Because osteoarthritis is not only a disease of pain, but one characterized by behavioral, appetite, anxiety/aggression, family socialization, and sleep aberrations, the pet's owners are familiarized with the pain scale (canine orthopedic index) and additional behavioral assessment log.
The patient group is twenty-four dogs suffering from osteoarthritis, broken into eight groups of three dogs. The first group receives a control composition with no active agent; the second group receives a composition comprising HA as the sole active agent; the third group receives a composition comprising HMW HA as the sole active agent; the fourth group receives a composition comprising CBD as the sole active agent; the fifth group receives a composition comprising HA and CBD as the active agents; the sixth group receives a composition comprising HMW HA and CBD Complex as the active agents; the seventh group receives a composition comprising Rimadyl as the active agent; and the eighth group receives a composition comprising Meloxicam as the active agent.
Each composition is administered for a period of four (4) weeks. The owner completes the electronic log questionnaire each week. At the end of the 4-week study, participants have another full physical examination, including weight measurement, thigh circumference, and CBC/blood chemistries, with an exit interview of the owners to gain final impressions.
Each group is evaluated for pain scores and the scores averaged. The following scores are observed and the results depicted in FIG. 9: […]

Compound | Reduction in Temperature (° F.) [1] | Improvement Score [2] | Final Score [3] | Initial Score [3] | Reduction in Temperature (° F.) [4] | Reduction in Temperature (° F.) [5] | Average Pain Score [6] | Average Side Effect Score [6] | Average Pain Score ([6]; listed as CBD alone) | Average Side Effect Score ([6]; listed as CBD alone) | Average Pain Score ([6]; listed as HMW HA alone) | Average Side Effect Score ([6]; listed as HMW HA alone)
C=C(C)[C@@H]1CCC(C)=C[C@H]1c1c(O)cc(CCCCC)cc1O [CBD Alone, 2-[(1R,6R)-3-methyl-6-prop-1-en-2-ylcyclohex-2-en-1-yl]-5-pentylbenzene-1,3-diol] | 1.7 ° F. | 1.8 | 2 | 0 | 2.0 ° F. | 1.7 ° F. | 19 | 0.5 | not especially effective in reducing pain | even lower degree of adverse side effects |  | 
hyaluronic acid [HMW HA Alone] | 1.9 ° F. | 1 | 3 | 0 | 2.3 ° F. | 1.9 ° F. | 16 | 4 |  |  | only slightly reduce pain | low degree of adverse side effects
